In publication PMC6911004, “Fragment-based screening identifies molecules targeting the substrate-binding ankyrin repeat domains of tankyrase” (Scientific Reports, 2019):

How the values were obtained:
Format in all cases: binding
TNKS2 ARC5 = target: T1, TNKS2 ARC5 (Homo sapiens, UniProt Q9H2K2); assay: WaterLOGSY NMR assay
T1 construct: followed by TNKS2 ARC5 (1 μL, 100 μM stock); His6-GST; made in house; host or cells: E. coli
Text: 39 hits from the DSF screen were suitable for follow-up by ligand-observed NMR methods. We re-purchased fragments and performed T2 relaxation-edited (CPMG-edited) and waterLOGSY experiments for each fragment with TNKS2 ARC5. We explored saturation transfer difference (STD) NMR, also using TNKS2 ARC5, but the assay was not sensitive enough to produce a reliable binding signal, likely due to the relatively small size of a single ARC protein (data not shown). High ligand concentrations were required to achieve sufficient signal, which in turn could lead to false-positive hits due to non-specific binding.
Using the relaxation-edited assay, we tested each fragment in three independent measurements (Fig. 2C), unless we obtained two negative results (non-binding) in the first two experiments. […] As a negative NOE for the compound-only sample could indicate aggregation, we flagged these compounds as potentially problematic. We identified 14 fragments that bound to TNKS2 ARC5 by both relaxation-edited and waterLOGSY methods (0.78% hit rate). […]
Fragments were dispensed in duplicate into a 384-well plate (250 nL, 100 mM stock in DMSO). […] Solutions were transferred to 1.7 mm NMR tubes using a Gilson liquid handling system. ^1H NMR spectra were recorded, with the DMSO signal dampened. […]

TNKS2 ARC1 (20–178) = target: T2, TNKS2 ARC1 (20–178) (Homo sapiens, UniProt Q9H2K2); assay: WaterLOGSY NMR assay
T2 construct: TNKS2 ARC1 (20–178); His6-GST; made in house; host or cells: E. coli
Procedure: (§1) Fragments were dispensed in duplicate into a 384-well plate (250 nL, 100 mM stock in DMSO). Wells were backfilled with DMSO (2.25 μL). Tankyrase ARC protein (47.5 μL in 25 mM HEPES-NaOH pH7.5, 100 mM NaCl, 2 mM TCEP, 10% D2O; 20 μM final protein concentration in the assay) was added to the samples containing protein; buffer only (47.5 μL) was added to the compound-only samples. Solutions were transferred to 1.7 mm NMR tubes using a Gilson liquid handling system. ^1H NMR spectra were recorded, with the DMSO signal dampened. The bulk water signal at 4.7 ppm was selectively inverted. Data were processed using Bruker Topspin 3.14[66].

TNKS2 ARC2–3 (173–487) = target: T3, TNKS2 ARC2–3 (173–487) (Homo sapiens, UniProt Q9H2K2); assay: WaterLOGSY NMR assay
T3 construct: TNKS2 ARC2–3 (173–487); His6-GST; made in house; host or cells: E. coli
Procedure: as §1

TNKS2 ARC4 = target: T4, TNKS2 ARC4 (Homo sapiens, UniProt Q9H2K2); assay: Fluorescence polarisation (FP) competition assay with Cy5-labelled TBM peptide probe; conditions: 5 nM Cy5-RSPPDGQS probe, 5 µM TNKS2 ARC4
T4 construct: The cell was filled with TNKS2 ARC4 (488–649); His6-GST; made in house; host or cells: E. coli
T4 sequence (Q9H2K2 488-649): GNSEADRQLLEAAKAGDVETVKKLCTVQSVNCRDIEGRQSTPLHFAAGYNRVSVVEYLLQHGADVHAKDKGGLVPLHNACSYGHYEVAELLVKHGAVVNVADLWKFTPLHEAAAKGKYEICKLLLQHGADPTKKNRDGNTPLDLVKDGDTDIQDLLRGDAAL
Text: Given the anticipated impairment of cell permeability by the N-terminal TBM arginine, we investigated whether the guanidine group could be substituted. To prioritise synthesis efforts, we followed an in-silico docking approach, exploring the importance of the positive charge and hydrogen bonding interactions, linker lengths/flexibility and side chain geometry (see Supplementary Materials and Methods for details). From commercially available side chain alternatives, we identified five potential candidates for R replacements: 1H-imidazole-5-pentanoic acid, 1H-imidazole-1-pentanoic acid, 7-aminoheptanoic acid, D-arginine and L-citrulline (Supplementary Fig. 1). We next synthesised 3BP2 TBM octapeptides, incorporating the five arginine substituents at position 1, followed by fluorescence polarisation (FP) assays to assess competition of the peptides with a Cy5-labelled TBM peptide probe (Supplementary Fig. 1). We used a 16-mer TBM peptide (LPHLQRSPPDGQSFRSW, W introduced to measure A280) derived from the model substrate 3BP2, a signalling adapter protein[4], as a positive control for a competitor, and a corresponding non-binding TBM peptide bearing a glycine-to-arginine substitution at position 6[4] as a negative control. […]
Fluorescence polarisation assay
Unlabelled arginine substituent peptides were titrated up to 1 mM in the presence of 5 nM of a labelled peptide probe (Cy5-RSPPDGQS, JPT Peptide Technologies) and 5 µM TNKS2 ARC4. 3BP2 16-mer peptide was used as a positive control, and the same peptide with the glycine at position 6 mutated to arginine (G6R) was used as a negative control. Plus F ProxiPlates (PerkinElmer) were used with a 2103 Envision Multilabel plate reader (PerkinElmer), fitted with 620 nm (excitation) and 688 nm (emission) filters. Filter bandwidths were 10 nm. A Nanodrop 2000 was used for measuring protein and probe concentrations by UV absorption. TNKS2 ARC4 protein was thawed from -80 ° C, and centrifuged at 13,000 […]
Two independent experiments were performed in technical duplicate. A 2´ stock solution containing TNKS2 ARC4 protein (10 µM) and fluorescently tagged probe (10 nM) in assay buffer (25 mM HEPES-NaOH pH 7.5, 100 mM NaCl, 1 mM TCEP, 0.01% CHAPS) was prepared. A 2-fold dilution series of untagged peptide in assay buffer was made (0 – 2 mM).
Protein and peptide stock solutions were mixed 1:1. Blank samples contained assay buffer only. The plate was sealed, centrifuged for 1 min at 1000 ´ g, and then incubated in the dark for 30 min before reading. Readings were taken with 50 flashes per well, and measured in millipolarisation (mP) units. Data were exported to Microsoft Excel, and analysed in GraphPad Prism 6.0. The means of technical duplicate values were calculated for both experiments, and FP values were plotted against unlabelled peptide concentration. Curves were normalised using the overall mean maximum and minimum FP values of the control 3BP2 TBM peptide. Curves were fitted using a non-linear regression, log(inhibitor) vs. response – variable slope (four parameters) model.
Multiple sequence alignments and amino acid identity mapping
Sequences of tankyrase ARCs were aligned using ClustalX (version 2.0) 4. […]
Supplementary Figure 1. Binding of TBM peptides containing arginine substituents to TNKS2 ARC4, measured in a fluorescence polarisation (FP) competition assay. Data points are means of technical duplicates from two independent experiments. […]

T3 sequence (Q9H2K2 173-487): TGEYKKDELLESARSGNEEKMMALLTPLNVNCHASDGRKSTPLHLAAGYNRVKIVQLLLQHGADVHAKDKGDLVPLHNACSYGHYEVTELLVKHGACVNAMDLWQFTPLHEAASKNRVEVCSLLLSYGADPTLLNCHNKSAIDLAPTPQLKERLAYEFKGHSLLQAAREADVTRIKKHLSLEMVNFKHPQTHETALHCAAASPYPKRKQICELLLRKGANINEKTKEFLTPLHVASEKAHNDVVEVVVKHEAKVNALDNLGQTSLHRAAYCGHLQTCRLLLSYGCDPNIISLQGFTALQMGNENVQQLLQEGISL
T1 sequence (Q9H2K2 641-800): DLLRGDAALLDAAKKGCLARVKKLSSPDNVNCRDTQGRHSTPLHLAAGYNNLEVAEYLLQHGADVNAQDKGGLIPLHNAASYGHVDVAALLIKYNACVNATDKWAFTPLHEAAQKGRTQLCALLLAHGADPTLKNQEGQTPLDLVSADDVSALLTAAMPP
T2 sequence (Q9H2K2 20-178): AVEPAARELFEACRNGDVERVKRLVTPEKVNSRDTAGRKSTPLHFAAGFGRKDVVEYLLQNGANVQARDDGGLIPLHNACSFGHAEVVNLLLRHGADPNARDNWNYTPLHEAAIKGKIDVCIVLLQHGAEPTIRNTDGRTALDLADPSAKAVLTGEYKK

Row | Molecule | waterLOGSY (TNKS2 ARC5) | waterLOGSY (TNKS2 ARC1 (20–178)) | waterLOGSY (TNKS2 ARC2–3 (173–487)) | IC50 (TNKS2 ARC4) [µM]
1 | O=C(NCc1ccco1)c1ccc2nccnc2c1 [compound 9] | negative NOE signal | no NOE | negative NOE signal | 
2 | LPHLQRSPPDGQSFRSW [3BP2 16-mer peptide, 16-mer TBM peptide derived from 3BP2, W added for A280, N-terminus acetylated, C-terminus amide-capped; positive control, reference compound] |  |  |  | 22
